# Reference: PubChem BioAssay AID1919005 (Molecular Pharmacology Branch, DTP, NCI, 2023)
# Tested on: 855422-203-R-J1-PDC complex spheroid growth
# Assay: Anticancer human tumor 855422-203-R-J1-PDC patient-derived bladder carcinoma cell line growth inhibition [AhR]
# Conditions: for IC50: curve of first compound; for viability, T/C: stronger effect = lower value
# In short: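 Agents were dosed in half-log steps down from roughly clinical Cmax, or from 10 microM where Cmax was unknown, alone and with AhR antagonists. Read-out: percent test/control growth of tumor spheroids containing HUVEC and MSC stromal cells.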
# [1] = second compound 0.1 µM, first compound 0.0316 µM
# [2] = second compound 0.1 µM, first compound 0.1 µM
# [3] = second compound 0.1 µM, first compound 0.316 µM
# [4] = second compound 0.1 µM, first compound 1 µM
# [5] = second compound 0.1 µM, first compound 3.16 µM
# [6] = second compound 0.1 µM, first compound 10 µM
# [7] = second compound 0.316 µM, first compound 0.0316 µM
# [8] = second compound 0.316 µM, first compound 0.1 µM
# [9] = second compound 0.316 µM, first compound 0.316 µM
# [10] = second compound 0.316 µM, first compound 1 µM
# [11] = second compound 0.316 µM, first compound 3.16 µM
# [12] = second compound 0.316 µM, first compound 10 µM
# [13] = second compound 1 µM, first compound 0.0316 µM
# [14] = second compound 1 µM, first compound 0.1 µM
# [15] = second compound 1 µM, first compound 0.316 µM
# [16] = second compound 1 µM, first compound 1 µM
# [17] = second compound 1 µM, first compound 3.16 µM
# [18] = second compound 1 µM, first compound 10 µM
# [19] = second compound 3.16 µM, first compound 0.0316 µM
# [20] = second compound 3.16 µM, first compound 0.1 µM
# [21] = second compound 3.16 µM, first compound 0.316 µM
# [22] = second compound 3.16 µM, first compound 1 µM
# [23] = second compound 3.16 µM, first compound 3.16 µM
# [24] = second compound 3.16 µM, first compound 10 µM
# [25] = second compound 10 µM, first compound 0.0316 µM
# [26] = second compound 10 µM, first compound 0.1 µM
# [27] = second compound 10 µM, first compound 0.316 µM
# [28] = second compound 10 µM, first compound 1 µM
# [29] = second compound 10 µM, first compound 3.16 µM
# [30] = second compound 10 µM, first compound 10 µM
# 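Further: spheroids exposed to agents for seven days before readout.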
# 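Wherever viability, T/C is given: percent of DMSO vehicle control luminescence viability.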
SMILES,IC50 (second compound 0.1 µM),IC50 (second compound 0.316 µM),IC50 (second compound 1 µM),IC50 (second compound 3.16 µM),IC50 (second compound 10 µM),"viability, T/C [1]","viability, T/C [2]","viability, T/C [3]","viability, T/C [4]","viability, T/C [7]","viability, T/C [8]","viability, T/C [9]","viability, T/C [10]","viability, T/C [13]","viability, T/C [14]","viability, T/C [15]","viability, T/C [16]","viability, T/C [19]","viability, T/C [20]","viability, T/C [21]",also measured
O=C(c1cc(Cc2n[nH]c(=O)c3ccccc23)ccc1F)N1CCN(C(=O)C2CC2)CC1 + CC(CO)NC(=O)c1cc(-c2ccc(Cl)cc2)nn(-c2cnn(C)c2)c1=O,> 10 µM,> 10 µM,> 10 µM,> 10 µM,> 10 µM,105%,107%,117%,110%,118%,107%,110%,106%,120%,115%,115%,108%,107%,112%,105%,"viability, T/C [5]: 98.8%; viability, T/C [6]: 95.2%; viability, T/C [11]: 105%; viability, T/C [12]: 97.9%; viability, T/C [17]: 113%; viability, T/C [18]: 101%; viability, T/C [22]: 105%; viability, T/C [23]: 96.9%; viability, T/C [24]: 106%; viability, T/C [25]: 109%; viability, T/C [26]: 115%; viability, T/C [27]: 98%; viability, T/C [28]: 97.1%; viability, T/C [29]: 105%; viability, T/C [30]: 102%"
Nc1ncn(C2CC(O)C(CO)O2)c(=O)n1 (stereo not given) + CC(CO)NC(=O)c1cc(-c2ccc(Cl)cc2)nn(-c2cnn(C)c2)c1=O,> 1 µM,> 1 µM,> 1 µM,> 1 µM,> 1 µM,85%,85.3%,73%,76.3%,93.3%,83.6%,80.7%,78.2%,95.7%,87.4%,82.5%,80.2%,90.2%,79.8%,79.5%,"viability, T/C (second compound 0.1 µM, first compound 0.00316 µM): 92.6%; viability, T/C (second compound 0.1 µM, first compound 0.01 µM): 92.2%; viability, T/C (second compound 0.316 µM, first compound 0.00316 µM): 94.6%; viability, T/C (second compound 0.316 µM, first compound 0.01 µM): 90.3%; viability, T/C (second compound 1 µM, first compound 0.00316 µM): 103%; viability, T/C (second compound 1 µM, first compound 0.01 µM): 96.6%; viability, T/C (second compound 3.16 µM, first compound 0.00316 µM): 95.3%; viability, T/C (second compound 3.16 µM, first compound 0.01 µM): 93.9%; viability, T/C [22]: 80.9%; viability, T/C (second compound 10 µM, first compound 0.00316 µM): 96.5%; viability, T/C (second compound 10 µM, first compound 0.01 µM): 88.7%; viability, T/C [25]: 88.3%; viability, T/C [26]: 91.5%; viability, T/C [27]: 84.8%; viability, T/C [28]: 76.3%"
O=C(c1cc(Cc2n[nH]c(=O)c3ccccc23)ccc1F)N1CCN(C(=O)C2CC2)CC1 + Cc1cncc(-c2nc(NCCc3c[nH]c4ccccc34)c3ncn(C(C)C)c3n2)c1,> 10 µM,> 10 µM,> 10 µM,> 10 µM,< 0.0316 µM,106%,102%,99.6%,103%,102%,109%,101%,93.7%,98.2%,93%,103%,87.9%,78.6%,83.6%,75.9%,"viability, T/C [5]: 108%; viability, T/C [6]: 90.9%; viability, T/C [11]: 101%; viability, T/C [12]: 86.7%; viability, T/C [17]: 94.7%; viability, T/C [18]: 89.5%; viability, T/C [22]: 71.2%; viability, T/C [23]: 89.8%; viability, T/C [24]: 78.6%; viability, T/C [25]: 16.8%; viability, T/C [26]: 12.5%; viability, T/C [27]: 7.7%; viability, T/C [28]: 3.22%; viability, T/C [29]: 6.34%; viability, T/C [30]: 5.85%"
